# The source made the active and inactive calls. The rule behind the calls is not given here.
# Tests used:
# [1] = Inhibition of alpha-glucosidase at 100 uM
# [2] = biological target: T1, Glucose-6-phosphatase catalytic subunit 1 (Homo sapiens) (UniProt P35575); assay: Inhibition of glucose-6-phosphatase at 100 uM
# T1 sequence (whole entry): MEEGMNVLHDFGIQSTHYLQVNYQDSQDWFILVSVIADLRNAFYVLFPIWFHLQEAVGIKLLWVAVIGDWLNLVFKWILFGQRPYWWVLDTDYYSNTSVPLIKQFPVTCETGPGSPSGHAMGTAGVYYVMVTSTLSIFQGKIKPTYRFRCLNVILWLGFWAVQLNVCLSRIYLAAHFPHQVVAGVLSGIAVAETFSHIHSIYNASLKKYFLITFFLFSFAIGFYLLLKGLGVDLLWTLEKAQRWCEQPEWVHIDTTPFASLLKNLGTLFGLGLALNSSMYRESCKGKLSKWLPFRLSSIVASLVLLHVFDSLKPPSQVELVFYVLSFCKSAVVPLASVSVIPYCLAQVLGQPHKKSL
# [3] = biological target: T2, Tyrosine-protein phosphatase non-receptor type 1 (Homo sapiens) (UniProt P18031); assay: Inhibition of PTP1B at 100 uM
# T2 sequence (whole entry): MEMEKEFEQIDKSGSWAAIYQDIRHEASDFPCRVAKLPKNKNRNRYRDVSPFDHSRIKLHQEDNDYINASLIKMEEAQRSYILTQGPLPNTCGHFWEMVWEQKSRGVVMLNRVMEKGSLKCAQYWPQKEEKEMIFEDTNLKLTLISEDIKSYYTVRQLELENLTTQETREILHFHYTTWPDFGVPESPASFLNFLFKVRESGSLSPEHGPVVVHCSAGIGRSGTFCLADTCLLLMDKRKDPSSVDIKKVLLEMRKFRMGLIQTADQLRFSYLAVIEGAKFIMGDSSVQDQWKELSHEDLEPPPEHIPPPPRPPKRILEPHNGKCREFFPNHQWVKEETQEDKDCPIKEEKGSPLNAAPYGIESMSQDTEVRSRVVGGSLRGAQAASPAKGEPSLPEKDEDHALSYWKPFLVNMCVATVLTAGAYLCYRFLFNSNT
# [4] = Inhibition of glycogen phosphorylase at 100 uM
# [5] = biological target: Dipeptidyl peptidase 4 (Homo sapiens) (UniProt P27487); assay: Inhibition of DPP4 at 100 uM
# Rattus norvegicus [6] = assay: Antihyperglycemic activity against sucrose loaded Charles Foster/Wistar albino rat assessed as reduction in blood glucose level at 100 mg/kg, po administered 30 mins before sucrose challenge by glucometer; format: functional; set-up: scale not given: the % may be the effect or the level left
# Rattus norvegicus [7] = assay: Antihyperglycemic activity against sucrose challenged streptozotocin-induced diabetic Sprague-Dawley albino rat assessed as reduction of AUC of plasma glucose level at 100 mg/kg, po after 1 to 24 hrs administered 30 mins before sucrose challenge by glucometer; format: functional; set-up: scale not given: the % may be the effect or the level left
# Rattus norvegicus [8] = assay: Antihyperglycemic activity against sucrose challenged streptozotocin-induced diabetic Sprague-Dawley albino rat assessed as reduction of AUC of plasma glucose level at 100 mg/kg, po after 1 to 5 hrs administered 30 mins before sucrose challenge by glucometer; format: functional; set-up: scale not given: the % may be the effect or the level left
# [9] = biological target: T3, Tyrosine-protein phosphatase non-receptor type 1 (Homo sapiens, UniProt P18031); assay: Inhibition of PTP1B
# T3 sequence (P18031 whole entry): T2 sequence (whole entry)
# Mus musculus [10] = assay: Antihyperglycemic activity in C57BL/Ks db/db mouse assessed as reduction in blood glucose level at 30 mg/kg/day, po measured day 10 post dose by postprandial oral glucose tolerance test relative to control; format: functional; set-up: scale not given: the % may be the effect or the level left
# Mus musculus [11] = assay: Antihyperglycemic activity in C57BL/Ks db/db mouse assessed as reduction in blood glucose level at 30 mg/kg/day, po measured on day 6 post dose by postprandial oral glucose tolerance test relative to control; format: functional; set-up: scale not given: the % may be the effect or the level left
# Mus musculus [12] = assay: Antidyslipidemic activity in C57BL/Ks db/db mouse assessed as reduction in plasma total cholesterol at 30 mg/kg/day, po relative to control; format: functional; set-up: scale not given: the % may be the effect or the level left
# Mus musculus [13] = assay: Antihyperglycemic activity in C57BL/Ks db/db mouse assessed as reduction in postprandial hyperglycemia at 30 mg/kg, po measured for 10 days post dose relative to control; format: functional; set-up: scale not given: the % may be the effect or the level left
# Mus musculus [14] = assay: Reduction in food intake in C57BL/Ks db/db mouse at 30 mg/kg/day, po measured from day 3 to day 10; format: functional, organism-based
# Mus musculus [15] = assay: Antidyslipidemic activity in C57BL/Ks db/db mouse assessed as increase in HDL-cholesterol at 30 mg/kg/day, po relative to control; format: functional
# Mus musculus [16] = assay: Antiobesity activity in C57BL/Ks db/db mouse assessed as reduction in body weight change at 30 mg/kg/day, po measured for 10 days relative to control; format: functional, organism-based
# Mus musculus [17] = assay: Antihyperglycemic activity in C57BL/Ks db/db mouse assessed as reduction in insulin level at 30 mg/kg/day, po relative to control; format: functional; set-up: scale not given: the % may be the effect or the level left
# Mus musculus [18] = assay: Antidyslipidemic activity in C57BL/Ks db/db mouse assessed as reduction in plasma triglyceride level at 30 mg/kg/day, po relative to control; format: functional; set-up: scale not given: the % may be the effect or the level left
# Dipeptidyl peptidase 4 (Homo sapiens), sequence (P27487 whole entry, looked up): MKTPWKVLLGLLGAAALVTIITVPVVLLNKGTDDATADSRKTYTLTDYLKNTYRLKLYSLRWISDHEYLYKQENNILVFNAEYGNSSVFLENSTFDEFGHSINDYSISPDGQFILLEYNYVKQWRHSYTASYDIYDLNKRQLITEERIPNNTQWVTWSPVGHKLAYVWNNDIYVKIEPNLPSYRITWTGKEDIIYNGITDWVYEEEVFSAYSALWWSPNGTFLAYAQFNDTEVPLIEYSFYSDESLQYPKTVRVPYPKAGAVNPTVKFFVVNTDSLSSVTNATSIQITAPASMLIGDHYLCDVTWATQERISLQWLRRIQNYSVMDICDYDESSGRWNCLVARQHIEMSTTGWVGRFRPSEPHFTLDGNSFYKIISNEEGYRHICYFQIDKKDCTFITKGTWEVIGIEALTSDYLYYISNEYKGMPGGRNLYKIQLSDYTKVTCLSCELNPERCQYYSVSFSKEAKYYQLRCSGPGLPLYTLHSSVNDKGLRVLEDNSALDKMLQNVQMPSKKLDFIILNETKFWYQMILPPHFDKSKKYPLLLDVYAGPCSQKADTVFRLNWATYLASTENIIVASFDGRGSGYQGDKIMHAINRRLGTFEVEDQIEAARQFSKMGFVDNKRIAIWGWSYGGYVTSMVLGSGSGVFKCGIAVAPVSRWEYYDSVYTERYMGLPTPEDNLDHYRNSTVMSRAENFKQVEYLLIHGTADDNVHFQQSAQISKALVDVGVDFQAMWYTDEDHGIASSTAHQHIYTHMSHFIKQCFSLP
Compound,inhibition [1] [%],inhibition [2] [%],inhibition [3] [%],inhibition [4] [%],inhibition [5] [%],IC50 [9] [µM],Activity (Rattus norvegicus [6]) [%],Activity (Rattus norvegicus [7]) [%],Activity (Rattus norvegicus [8]) [%],Activity (Mus musculus [10]) [%],Activity (Mus musculus [11]) [%],Activity (Mus musculus [12]) [%],Activity (Mus musculus [13]) [%],Activity (Mus musculus [14]),Activity (Mus musculus [15]) [%],Activity (Mus musculus [16]),Activity (Mus musculus [17]) [%],Activity (Mus musculus [18]) [%]
CCC(=O)c1c(O)cccc1OCCN1CCCC1,28.9,< 5,36.4,13.7,< 5,,21.08,,,,,,,,,,,
CCC(=O)c1c(O)cccc1OCCCNc1ccc(OC)cc1,19.3,< 5,83.6,23,13.7,8.3,54.6,22.8,22.1,29.9,28.4,14.8,23.9,Active,7.2,Active,23.6,22
CCC(=O)c1c(O)cccc1OCCN1CCCCC1,< 5,21.3,27.5,< 5,< 5,,40.4,19.7,29.2,,,,,,,,,
COc1ccc(Cl)cc1C(=O)NCCc1ccc(S(=O)(=O)NC(=O)NC2CCCCC2)cc1 [GLYBURIDE],,,,,,,32.3,,,,,,,,,,,

# Further lines, with some results ahead:
inhibition [1] [%],inhibition [2] [%],inhibition [3] [%],inhibition [4] [%],inhibition [5] [%],IC50 [9] [µM],Compound,Activity (Rattus norvegicus [6]) [%],Activity (Rattus norvegicus [7]) [%],Activity (Rattus norvegicus [8]) [%],Activity (Mus musculus [10]) [%],Activity (Mus musculus [11]) [%],Activity (Mus musculus [12]) [%],Activity (Mus musculus [13]) [%],Activity (Mus musculus [14]),Activity (Mus musculus [15]) [%],Activity (Mus musculus [16]),Activity (Mus musculus [17]) [%],Activity (Mus musculus [18]) [%]
18.9,18.9,79.8,< 5,< 5,12.5,CCC(=O)c1c(O)cccc1OCCCNc1ccc(C)cc1,28.7,2.02,3.02,,,,,,,,,
11.8,< 5,42.6,< 5,< 5,,CCOC(=O)C(CCCOc1cccc(OCCCNc2ccc(C)cc2)c1C(=O)CC)C(=O)OCC,8.49,,,,,,,,,,,
< 5,18.3,52.1,24.8,17.4,19.2,CCCCNCCCOc1cccc(O)c1C(=O)CC,11,,,,,,,,,,,
< 5,< 5,40.4,22.9,< 5,,CCOC(=O)C(CCCOc1cccc(OCCN(CC)CC)c1C(=O)CC)C(=O)OCC,17,,,,,,,,,,,
< 5,< 5,51.1,< 5,< 5,20.4,CCOC(=O)C(CCCOc1cccc(OCCN(C)C)c1C(=O)CC)C(=O)OCC,11.5,,,,,,,,,,,
